Assay results taken from patent US7220554B2, “Methods for identifying inhibitors” (priority 2003, dated 2007).
Entries after “also recorded” stand apart in the source; their conditions may differ. Non-standard residues stand in square brackets, D forms with d. Residues, ends and D or L forms follow the SMILES beside them. *: point of attachment. Nle = CCCC[C@H](N)C(=O)O; Cbz = O=C(OCc1ccccc1)*; OtBu = CC(C)(C)O*

Experiments:
[1] = tested on: Vif-dependent down modulation of APOBEC3G-Myc; assay: Western immunoblotting of APOBEC3G-Myc in cotransfected 293T cultures that contain or lack Vif; format: cell-based, human; conditions: for quantity of APOBEC3G-Myc in the cultures that contained Vif: incubated 10 hours, FIG. 11A
Source text: (§1) Expression vectors: pHIV-gpt(wt) and its derivative pHIV-gpt(Δvif) were previously described (Madani & Kabat, J. Virol. 72, 10251–10255, 1998; Page et al., J Virol 64, 5270–5276, 1990; Madani & Kabat, J. Virol. 74, 5982–5987, 2000). pcDNA3.1-Vif was donated by D. Gabuzda (Dana-Farber Cancer Institute, Harvard, Boston, Mass.). Rev-dependent plasmids for expression of the Vif mutants Δ2, Δ5, Δ6, Δ7, Δ9, Δ10, Δ12 and Δ13 (Simon et al., J. Virol. 73, 2675–2681, 1999) were provided by M. Malim (Medical Research Council, Cambridge, UK) and were coexpressed with pHIV-gpt(Δvif). APOBEC3G cDNA was cloned from H9 cells (nonpermissive) by reverse transcriptase-PCR (Barnes, Proc. Natl. Acad. Sci. USA 91, 2216–2220, 1994; Sambrook et al., Molecular Cloning. A Laboratory Manual, Chapter 14, 14.5–14.34., CSHL Press, Cold Spring Harbor, 1989) using primers complementary to the 5′ and 3′ ends of APOBEC3G coding region (Sheehy et al., Nature 418, 646–650, 2002) (upstream primer, 5′-[…]-3′ (SEQ ID NO: 15) containing an XhoI restriction site [underlined]; downstream primer, 5′-[…]-3′ (SEQ ID NO: 16) containing a SfuI restriction site [underlined]). The cDNA was cloned between XhoI and SfuI into the pcDNA3.1/Myc-His C mammalian expression vector (Invitrogen) to obtain the pcDNA3.1-APOBEC3G-Myc vector. The pSVIIIEnv vector was used to pseudotype HIV-gpt virions (Helseth et al., J. Virol. 64, 2416–2420, 1990). Transfections employed PolyFect reagent (Qiagen, Inc.) according to the manufacturer's instructions, with equimolar ratios of all plasmids and with harvests after 36 hours unless otherwise mentioned. Viruses: HIV-gpt virions were produced and titered as previously described (Page et al., J Virol 64, 5270–5276, 1990; Page et al., J Virol 66, 524–533, 1992; Platt et al., J. Virol. 75, 12266–12278, 2001). For viral purifications, 27 ml of the virus-containing media from 293T cells were pelleted through 2 ml of a 20% sucrose at 100,000 g for 1.5 hours. Virions were resuspended in TSE (0.1 M NaCl, 1 mM EDTA, 0.01M Tris-Cl, pH 7.4), and centrifuged to equilibrium in 5 ml 20–60% sucrose gradients in TSE at 200,000 g for 2.5 hours. Virus-containing fractions were detected by immunoblotting using HIV Immunoglobulin serum (AIDS Research & Reference Reagent Program, Division of AIDS, NIAID, NIH: contributed by NABI and NHLBI). Peak fractions were pooled, diluted with TSE, and pelleted through 20% sucrose at 100,000 g for two hours. Analysis of proteins and RNAs: Extracts of cotransfected 293T and COS7 cultures were prepared using either TX (1% Triton X-100, 150 mM NaCl, 10 mM Tris-Cl, pH 7.5, 1 mM MgCl) or RIPA (50 mM Tris-Ci pH 7.4, 1% Nonidet P40, 0.1% sodium deoxycholate, 150 mM NaCl) buffers with complete protease inhibitors (Roche), followed by centrifugation at 1,500 g for 5 minutes to sediment nuclei. Extracts were adjusted to equivalent protein concentrations using the Bradford reagent (BioRad Laboratories), and equal aliquots were then used for Western immunoblotting (Marin et al., J. Virol. 74, 8085–8093, 2000) or for immunoprecipitations (Klippel et al., Mol. Cell. Biol. 14, 2675–2685, 1994) using the antibodies HIV-1 HXB2 Vif rabbit antiserum #2221, (AIDS Research and Reference Reagent Program, Division of AIDS, NIAID, NIH: contributed by Dr. D. Gabuzda), Myc-specific monoclonal antibody clone 9E10 (Sigma) (Marin et al., J. Virol. 74, 8085–8093, 2000), or the ubiquitin-specific mouse monoclonal antibody (Zymed). […] Where indicated, cultures were preincubated with 50 μM concentrations of the proteasome inhibitors ALLN, MG-132, or Proteasome Inhibitor-I (Calbiochem).

[2] = tested on: Vif-mediated elimination of YFP-APOBEC3G; assay: Fluorescence of YFP-APOBEC3G in 293T cultures cotransfected with Vif; format: cell-based, human; conditions: ALLN for eight hours
Source text: Using methods essentially similar to those described in Example 1, a vector was constructed that encodes a chimeric protein containing the yellow fluorescent protein (YFP) at the amino terminus and APOBEC3G at the carboxyl terminus (YFP-APOBEC3G; SEQ ID NOs: 3 and 4). Cotransfection of plasmids that encode this chimera and Vif into human 293T cell cultures results in only a few fluorescent cells, consistent with a Vif-induced degradation (FIG. 13A, top two panels). In contrast, cotransfection with a vector lacking Vif results in a much larger fraction of fluorescent cells.

[3] = tested on: polyubiquitinated APOBEC3G; assay: Ni-NTA purification of APOBEC3G-Myc in 8M urea and immunoblotting with ubiquitin-specific antibody; format: cell-based, human; conditions: 293T; ALLN 10 hours; FIG. 11B
Source text: Expression vectors: pHIV-gpt(wt) and its derivative pHIV-gpt(Δvif) were previously described (Madani & Kabat, J. Virol. 72, 10251–10255, 1998; Page et al., J Virol 64, 5270–5276, 1990; Madani & Kabat, J. Virol. 74, 5982–5987, 2000). pcDNA3.1-Vif was donated by D. Gabuzda (Dana-Farber Cancer Institute, Harvard, Boston, Mass.). Rev-dependent plasmids for expression of the Vif mutants Δ2, Δ5, Δ6, Δ7, Δ9, Δ10, Δ12 and Δ13 (Simon et al., J. Virol. 73, 2675–2681, 1999) were provided by M. Malim (Medical Research Council, Cambridge, UK) and were coexpressed with pHIV-gpt(Δvif). APOBEC3G cDNA was cloned from H9 cells (nonpermissive) by reverse transcriptase-PCR (Barnes, Proc. Natl. Acad. Sci. USA 91, 2216–2220, 1994; Sambrook et al., Molecular Cloning. A Laboratory Manual, Chapter 14, 14.5–14.34., CSHL Press, Cold Spring Harbor, 1989) using primers complementary to the 5′ and 3′ ends of APOBEC3G coding region (Sheehy et al., Nature 418, 646–650, 2002) (upstream primer, 5′-[…]-3′ (SEQ ID NO: 15) containing an XhoI restriction site [underlined]; downstream primer, 5′-[…]-3′ (SEQ ID NO: 16) containing a SfuI restriction site [underlined]). […] Virus-containing fractions were detected by immunoblotting using HIV Immunoglobulin serum (AIDS Research & Reference Reagent Program, Division of AIDS, NIAID, NIH: contributed by NABI and NHLBI). […]

APOBEC3G-Myc = assay: Immunofluorescence microscopy of Vif and APOBEC3G-Myc in cotransfected COS7 cells; format: cell-based, African green monkey; conditions: ALLN in DMSO, FIG. 5B
Experimental: For immunofluorescence, COS7 cells were used because they are more adherent than 293T cells. Cells cultured in Permanox chamber slides (Nalge Nunc International) were fixed in 5% formaldehyde and 2% sucrose in PBS (Invitrogen) at room temperature for 20 minutes, and permeabilized with 1% Triton X-100 in PBS with 10% sucrose for 30 minutes. Primary antibodies were Vif antiserum #2221 or the Myc-specific monoclonal antibody 9E10. Secondary fluorescent antibodies were Alexa Fluor 488 goat anti-rabbit IgG(H+L) and Alexa Fluor 594 goat anti-mouse IgG (H+L) (Molecular Probes Inc), which reacted only with their species-specific primary antibodies. Slides were mounted in FluoroGuard (BioRad Laboratories), and observed with a Zeiss Axiovert 200M deconvolution microscope. The percentage of double-positive cells in FIG. 5B is defined as the percentage of the Vif-positive cells and that contained APOBEC3G-Myc. RNA extraction and Northern blot analyses were previously described (Tailor et al., Proc. Natl. Acad. Sci. USA 96, 927–932, 1999). A cDNA probe for the S2 ribosomal protein was used as a loading control.

[4] = tested on: total cellular polyubiquitinated proteins; assay: Western blot of total cell culture extracts with ubiquitin-specific antibody; format: cell-based, human; conditions: 293T; for amounts of total polyubiquitinated proteins (inhibitor activity in cultures with and without Vif): 50 μM inhibitor; for quantities of total cellular polyubiquitinated proteins (inhibitor activity in both cultures): preincubated 6 hours, FIG. 9B
Source text: as §1

CCCC[C@@H](C=O)NC(=O)[C@H](CC(C)C)NC(=O)[C@H](CC(C)C)NC(C)=O [ALLN] (Ac-Leu-Leu-[Nle]-aldehyde)
control protein α-tubulin ([1]; 50 μM inhibitor, 6–10 hour): no effect
quantities of APOBEC3G-Myc in the cultures that contained Vif ([1]; 50 μM inhibitor, 6–10 hour): increased the quantities of APOBEC3G-Myc
quantities of APOBEC3G-Myc in the cultures that lacked Vif ([1]; 50 μM inhibitor, 6–10 hour): not in the cultures that lacked Vif
quantity of APOBEC3G-Myc in the cultures that contained Vif [1]: increased the quantity of APOBEC3G-Myc
quantities of APOBEC3G-Myc in the cultures that contained Vif ([1]; preincubated 6 hours, FIG. 9B): increased the quantities of APOBEC3G-Myc
quantities of APOBEC3G-Myc in the cultures that lacked Vif ([1]; preincubated 6 hours, FIG. 9B): not in the cultures that lacked Vif
cells with YFP-APOBEC3G fluorescence in the culture that contains Vif [2]: reverses the Vif-dependent elimination of the chimeric protein; also recorded: blocks Vif-mediated elimination of YFP-APOBEC3G; also recorded: accumulate in many more cells
amount of polyubiquitinated APOBEC3G-Myc, effect of proteasome inhibitor [3]: substantially increased; also recorded: greatly increased
percentage of cells that coexpressed wild-type Vif and APOBEC3G-Myc (APOBEC3G-Myc): dramatic increase in coexpression; also recorded: this decrease was alleviated by ALLN
amounts of total polyubiquitinated proteins (inhibitor activity in cultures with and without Vif) [4]: active in both cultures
quantities of total cellular polyubiquitinated proteins (inhibitor activity in both cultures) [4]: active in both cultures

CC(C)C[C@@H](C=O)NC(=O)[C@H](CC(C)C)NC(=O)[C@H](CC(C)C)NC(=O)OCc1ccccc1 [MG-132] (Cbz-Leu-Leu-Leu-aldehyde)
control protein α-tubulin ([1]; 50 μM inhibitor, 6–10 hour): no effect
quantities of APOBEC3G-Myc in the cultures that contained Vif ([1]; 50 μM inhibitor, 6–10 hour): increased the quantities of APOBEC3G-Myc
quantities of APOBEC3G-Myc in the cultures that lacked Vif ([1]; 50 μM inhibitor, 6–10 hour): not in the cultures that lacked Vif
quantity of APOBEC3G-Myc in the cultures that contained Vif [1]: increased the quantity of APOBEC3G-Myc
quantities of APOBEC3G-Myc in the cultures that contained Vif ([1]; preincubated 6 hours, FIG. 9B): increased the quantities of APOBEC3G-Myc
quantities of APOBEC3G-Myc in the cultures that lacked Vif ([1]; preincubated 6 hours, FIG. 9B): not in the cultures that lacked Vif
amounts of total polyubiquitinated proteins (inhibitor activity in cultures with and without Vif) [4]: active in both cultures
quantities of total cellular polyubiquitinated proteins (inhibitor activity in both cultures) [4]: active in both cultures

CC[C@H](C)[C@H](NC(=O)OCc1ccccc1)C(=O)N[C@@H](CCC(=O)OC(C)(C)C)C(=O)N[C@@H](C)C(=O)N[C@H](C=O)CC(C)C [Proteasome Inhibitor-I] (Cbz-IE(OtBu)AL-aldehyde)
control protein α-tubulin ([1]; 50 μM inhibitor, 6–10 hour): no effect
quantities of APOBEC3G-Myc in the cultures that contained Vif ([1]; 50 μM inhibitor, 6–10 hour): increased the quantities of APOBEC3G-Myc
quantities of APOBEC3G-Myc in the cultures that lacked Vif ([1]; 50 μM inhibitor, 6–10 hour): not in the cultures that lacked Vif
quantity of APOBEC3G-Myc in the cultures that contained Vif [1]: increased the quantity of APOBEC3G-Myc
quantities of APOBEC3G-Myc in the cultures that contained Vif ([1]; preincubated 6 hours, FIG. 9B): increased the quantities of APOBEC3G-Myc
quantities of APOBEC3G-Myc in the cultures that lacked Vif ([1]; preincubated 6 hours, FIG. 9B): not in the cultures that lacked Vif
amounts of total polyubiquitinated proteins (inhibitor activity in cultures with and without Vif) [4]: active in both cultures
quantities of total cellular polyubiquitinated proteins (inhibitor activity in both cultures) [4]: active in both cultures
